Data taken from publication PMC10805311, “Pseudomonas aeruginosa two-component system CprRS regulates HigBA expression and bacterial cytotoxicity in response to LL-37 stress” (PLOS Pathogens, 2024).

What was measured:
[1] = molecular target: full-length CprS (CprSFL); test: Microscale thermophoresis (MST), full-length CprS; format: binding, P. aeruginosa; settings: 100 nM His-tag labelled CprSFL, 16 doubling dilutions from 500 μM peptide, PBST buffer, 25°C 30 min, Monolith NT.115, repeated three times, read-out: Kd (CprSFL + LL-37)
Procedure: (§1) The E. coli BL21 (DE3) strains harboring pET22b-cprS and pET22b-cprR were cultured at 37°C in LB medium and suppled with 0.4 mM IPTG as the OD600 reached to 0.8. The cultures were incubated at 16°C for an additional 14 h and the cells were collected and resuspended in buffer A (20 mM tris-HCl (pH 8.0), 150 mM NaCl). The cells were lysed by ultrasound and centrifuged at 15, 000 rpm for 20 min at 4°C. Then the supernatant was applied to Ni-agarose resins and eluted with buffer containing 300 mM imidazole. As for full-length CprS, the supernatant needed to be extracted by 2% ELUGENT Detergent and flow 0.02% DDM for elution. The target proteins were further purified via AKTA purifier using buffer A and concentrated to 12 mg/mL.
(§2) The 100 nM CprS with His-tag was labeled with Monolith His-Tag Labelling Kit RED-tris-NTA 2nd Generation Kit and the cationic peptides used in this work were diluted with PBST buffer gradient from 0.5 mM [34]. The proteins and cationic peptide dilutions were mixed and incubated at 25°C for 30 min and detected on a Monolith NT.115 instrument. The data were analyzed by NanoTemper Analysis 1.2.20 software.

P. aeruginosa ΔcprS = test: Label-free quantitative proteomics of ΔcprS before and after LL-37; format: cell-based; settings: PscE, PscH, PscJ, ExoT, PcrV, PcrH, PhzA2, PhzB2, PhzF1, FilF, PigA, HsbA; before vs after LL-37
Procedure: Protein was collected, reduced, and alkylated from WT, ΔcprS, ΔcprR, ΔcprSΔhigB, and ΔcprSΔhigB strains as reported. The total purified peptides were solubilized in 20 μL of 0.1% formic acid (FA, v/v) and the concentration was measured according to BCA assay.
About 2 μg samples were analyzed by orbitrap Fusion Lumos MS coupled online to an EASY-nLC 1200 system with a data-independent acquisition mode (DIA). The mobile phase used for the liquid chromatography consisted of buffer A (0.1% FA) and buffer B (80% acetonitrile, 0.1% FA). The peptides were separated using a 160-min nonlinear gradient consisting of 4–35% buffer B for 85 min, 35–100% buffer B for 60 min and 100% buffer B for 15 min at a flow rate of 300 nL min^−1. The acquired DIA data were analyzed by DIA-NN software against the protein database of P. aeruginosa PA14. Data processing was conducted using the software Perseus. Student’s t-test was used to assess the significance of differential expression of proteins (DEPs) between two groups. Proteins that have significance level of P < 0.05 and fold change >1.5 or <–1.5 were considered as DEPs.

higB promoter = test: β-Galactosidase reporter, higB promoter in P. aeruginosa; format: cell-based
higB = test: qPCR, higB mRNA; format: cell-based, P. aeruginosa
Procedure: (§3) Overnight bacterial cultures were subcultured in fresh LB medium to OD600 0.8 and the cells were collected by using Trizol. The cDNA was synthesized by using PrimeScript RT reagent Kit. 2 × SYBR qPCR Master Mix was used to perform qPCR assays. The reaction step was 2 × SYBR qPCR Master Mix (Without ROX) 10 μL, upstream Primer (10 μM) 0.4 μL, downstream Primer (10 μM) 0.4 μL, template cDNA 1 μg and ddH2O up to 20 μL. The qPCR procedure was set as: stage 1 (95°C 30 s, repeat once), stage 2 (95°C 10 s, 60°C 30 s, repeat for 40 times) and stage 3 (95°C 15 s, 60°C 1 min, 95°C 15 s, repeat 1 time). The oprL gene was used as a normalizer. The same method was used for mammalian cells, and 18 sRNA served as a normalizer.

[2] = system: virulence sensor kinase CovS; settings: group A streptococcus; cited from earlier work
Source text: (§4) In the field of microbiology and immunology, the interaction between host antimicrobial peptides and pathogenic bacteria has been a subject of extensive research. The success of bacterial infections depends on a delicate balance of signals exchanged between microbes and hosts. Cationic antimicrobial peptides, including defensins such as α-defensins, β-defensins, and cathelicidin LL-37, are crucial components of innate host defense against bacterial infections. Numerous studies have shown that LL-37 acts as a shield between the host and the external environment, preventing bact ...

CarSR system = settings: Vibrio cholerae; cited from earlier work
Source text: as §4

cprS = test: qRT-PCR, cprS transcription; format: cell-based, P. aeruginosa; settings: oprL as normalizer
Procedure: as §3

arnBCADTEF operon = test: Expression of arnBCADTEF operon; format: cell-based, P. aeruginosa
Procedure: as §3

[3] = molecular target: CprS sensor domain (CprSSD, residues 28–163); test: Microscale thermophoresis (MST), CprS sensor domain; format: binding, P. aeruginosa; settings: 100 nM His-tag labelled CprSSD (residues 28–163), 16 doubling dilutions from 500 μM peptide, PBST buffer, 25°C 30 min, Monolith NT.115, repeated three times, read-out: Kd (CprSSD + LL-37)
Procedure: as §1, §2

Raw264.7 macrophages = test: LDH release cytotoxicity assay of infected macrophages; format: cell-based; settings: MOI of 10, LL-37-treated WT P. aeruginosa
Procedure: The Raw264.7 cells were infected with suspended bacteria at a multiplicity of infection (MOI) of 10 in antibiotic-free DMEM medium. Following incubation, the supernatant was collected and the presence of LDH was measured using the LDH cytotoxicity assay kit. The baseline level of LDH release (0% LDH release) was determined using DMEM medium. Cells treated with LDH release agent C0017-1 were used as a positive control for total release (100% LDH release). The percentage of cytotoxicity was calculated according to the instructions provided by the manufacturer.

pscDEFG operon = test: Expression of pscDEFG operon; format: cell-based, P. aeruginosa
Procedure: as §3

[4] = system: RAW264.7 macrophages (TNF-α, IL-1β, IL-8, IL-12); test: Pro-inflammatory cytokine levels in infected macrophages; format: cell-based; settings: 18s RNA normalizer
Procedure: as §3

higA = test: Expression of higA; format: cell-based, P. aeruginosa; settings: WT and ΔcprR or ΔcprS mutants
Procedure: as §3

[5] = system: exsA and effectors exoS, exoT, and exoU; test: Expression of T3SS genes exsA, exoS, exoT, exoU; format: cell-based, P. aeruginosa; settings: combined mutations of CprRS components and higB gene
Procedure: as §3

cprR = test: qRT-PCR, cprR transcription; format: cell-based, P. aeruginosa; settings: oprL as normalizer
Procedure: as §3

[6] = system: CprRS as well as ParRS system; settings: cited from earlier work
Source text: Pseudomonas aeruginosa is a notorious opportunistic pathogen known for its ability to evade host immune defenses, particularly in resisting antimicrobial peptides (AMPs). […] One notable feature is the abundance and diversity of two-component systems (TCS) in P. aeruginosa, which play a crucial role in regulating its response to host and environmental stimuli, including ...

LL-37
Kd [1]: 1.41 µM | expression of virulence proteins in ΔcprS upon stimulation with LL-37 (P. aeruginosa ΔcprS): significant decrease in the expression of several proteins directly involved in virulence processes | induction of higB promoter by LL-37 (higB promoter; WT): significant positive induction activity on higB promoter | induction of higB promoter by LL-37 (higB promoter; ΔcprR and ΔcprS mutants): markedly reduced | increase in higB mRNA levels upon LL-37 treatment (higB; WT strain): 8.79 fold | increase in higB mRNA levels upon LL-37 treatment (higB; ΔcprR mutant): 2.12 fold | increase in higB mRNA levels upon LL-37 treatment (higB; ΔcprS mutant): 2.74 fold | activation of CovS [2]: activated by LL-37 | sensing by CarSR (CarSR system): sense human enteric α-defensin 5 and LL-37 to promote bacterial pathogenicity | increase in cprS transcription compared to control without LL-37 (cprS): 2.5 fold | expression of arnBCADTEF operon under LL-37 (arnBCADTEF operon; WT strain): markedly induced | expression of arnBCADTEF operon under LL-37 (arnBCADTEF operon; ΔcprR and ΔcprS mutants): this induction was not observed | Kd [3]: 5.34 µM | cytotoxicity of LL-37-treated WT strains compared to untreated group (Raw264.7 macrophages): increased cytotoxicity | expression of pscDEFG operon under LL-37 (pscDEFG operon; WT strain): notably induced | expression of pscDEFG operon under LL-37 (pscDEFG operon; mutants): no such induction was observed | effect of LL-37 pretreatment on inhibition of pro-inflammatory cytokines ([4]; macrophages infected with WT strain pretreated with LL-37): enhanced the ability of the WT strain to effectively inhibit the activation of pro-inflammatory cytokines | effect of LL-37 pretreatment on inhibition of pro-inflammatory cytokines ([4]; macrophages infected with ΔcprS and ΔcprR strains): largely absent | effect of LL-37 stimulation on expression of higA (higA): limited effects on the expression of higA | upregulation of T3SS in response to LL-37 stimulation [5]: greatly attenuated | increase in cprR transcription compared to control without LL-37 (cprR): 2.2 fold

dynorphin
stimulation of CprRS as well as ParRS by dynorphin [6]: increased virulence factor production and adaptive resistance
